Patent US10316017B2, “COT modulators and methods of use thereof” (Gilead Sciences, Inc., priority 2015, dated 2019)
Like-named read-outs stand apart in the source and are kept apart here.

Columns and labels:
[1] = system: TNFα production in LPS-stimulated human monocytes; assay: Cot Monocyte TNFα Cell Based Assay; settings: Homo sapiens, Monocyte, read-out: EC50 TNF
Procedure, shortened: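 Human monocytes (5,000 cells/well) pretreated with compound for 1 hour at 37° C (0.5% DMSO), then stimulated with 50 pg/ml LPS for 4 hours. Total TNFα measured by TR-FRET after overnight antibody incubation at room temp, expressed as percent of control between unstimulated and stimulated cells.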

[2] = molecular target: T1, human Cot catalytic domain (30-397 amino acids) (Homo sapiens, UniProt P41279); assay: High Throughput Cot Biochemical Assay (KinEASE TR-FRET); settings: read-out: IC50 HTRF
T1 construct: Purified recombinant human Cot catalytic domain (30-397 amino acids) was purchased from Cama Biosciences; purchased Cama Biosciences (so in the source)
Procedure, shortened: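 Recombinant human Cot catalytic domain (aa 30-397), 5 nM, with 1 μM STK3 peptide and 400 μM ATP in MOPS pH 7.0 buffer with MgOAc, DTT, BSA, NP-40, glycerol, 0.1% DMSO. Phosphorylated XL665-peptide detected by Eu-[…] antibody TR-FRET.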

[3] = LPS-stimulated human monocytes, TNFα TR-FRET
[4] = Cot KinEASE TR-FRET, 400 μM ATP
[5] = TNFα in LPS-stimulated human monocytes
[6] = Cot KinEASE TR-FRET (HTRF) biochemical assay, 400 μM ATP
[7] = Cot biochemical HTRF (KinEASE TR-FRET) assay

T1 sequence (P41279 30-397): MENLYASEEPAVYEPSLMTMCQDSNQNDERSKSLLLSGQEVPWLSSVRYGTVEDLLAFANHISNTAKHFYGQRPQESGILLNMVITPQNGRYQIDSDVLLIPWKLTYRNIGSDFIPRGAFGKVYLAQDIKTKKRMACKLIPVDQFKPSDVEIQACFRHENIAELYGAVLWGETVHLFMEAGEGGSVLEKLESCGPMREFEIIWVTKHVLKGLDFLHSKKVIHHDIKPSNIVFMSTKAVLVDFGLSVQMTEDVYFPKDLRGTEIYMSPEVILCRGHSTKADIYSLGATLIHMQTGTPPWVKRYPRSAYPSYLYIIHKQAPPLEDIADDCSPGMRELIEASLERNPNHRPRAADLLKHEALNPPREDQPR

| Structure (SMILES) | EC50 [1, 3] | IC50 [2, 4] | EC50 [1, 5] | IC50 [2, 6] | IC50 [2, 7] |
| --- | --- | --- | --- | --- | --- |
| Cc1c(C#N)cccc1[C@H](Nc1cc(C#N)c2ncc(C#N)c(NCC(C)(C)C)c2c1)c1cn(C2(C3CC3)CC2)nn1 [Example 1157, (S)-6-(((1-([1,1'-bi(cyclopropan)]-1-yl)-1H-1,2,3-triazol-4-yl)(3-cyano-2-methylphenyl)methyl)amino)-4-(neopentylamino)quinoline-3,8-dicarbonitrile] | 15 nM | 3 nM |  |  |  |
| CC[C@@H](Nc1c(C#N)cnc2c(Cl)cc(N[C@@H](c3c[nH]nn3)c3ccccc3Cl)cc12)c1ccccc1 [Example 532, 8-chloro-6-(((R)-(2-chlorophenyl)(1H-1,2,3-triazol-4-yl)methyl)amino)-4-(((R)-1-phenylpropyl)amino)quinoline-3-carbonitrile] |  |  | > 10000 nM |  | > 10000 nM |
| CC(C)(C)CNc1c(C#N)cnc2c(Cl)cc(N[C@H](c3cn(C4CC4)nn3)c3cccc4ccccc34)cc12 [Example 1003, (S)-8-chloro-6-(((1-cyclopropyl-1H-1,2,3-triazol-4-yl)(naphthalen-1-yl)methyl)amino)-4-(neopentylamino)quinoline-3-carbonitrile] | 227 nM | 19 nM |  |  |  |
| [2H][C@](Nc1cc(-c2cnco2)c2ncc(C#N)c(NCC(C)(C)C)c2c1)(c1ccc(F)cc1)c1cn(C2CC2)nn1 [Example 63, (S)-6-(((1-cyclopropyl-1H-1,2,3-triazol-4-yl)(4-fluorophenyl)methyl-d)amino)-4-(neopentylamino)-8-(oxazol-5-yl)quinoline-3-carbonitrile] |  |  | > 1000 nM | 213 nM |  |
| CC[C@@H](Nc1c(C#N)cnc2c(Cl)cc(N[C@@H](c3cccc(C(=O)O)c3)c3c[nH]nn3)cc12)c1ccccc1 [Example 565, 3-((S)-((8-chloro-3-cyano-4-(((R)-1-phenylpropyl)amino)quinolin-6-yl)amino)(1H-1,2,3-triazol-4-yl)methyl)benzoic acid] |  |  | > 10000 nM |  | 24 nM |
| CC(C)(C)N1CCC(n2cc([C@@H](Nc3cc(Cl)c4ncc(C#N)c(NC(=O)c5ccccc5)c4c3)c3ccc(F)cc3)nn2)CC1 [Compound 16, (S)-N-(6-(((1-(1-(tert-butyl)piperidin-4-yl)-1H-1,2,3-triazol-4-yl)(4-fluorophenyl)methyl)amino)-8-chloro-3-cyanoquinolin-4-yl)benzamide] |  |  | > 10000 nM | 1400 nM |  |
| Cc1c(C#N)cccc1[C@H](Nc1cc(C#N)c2ncc(C#N)c(NCC(C)(C)C(F)(F)F)c2c1)c1cn(C2(C)CC2)nn1 [Example 1146, (S)-6-(((3-cyano-2-methylphenyl)(1-(1-methylcyclopropyl)-1H-1,2,3-triazol-4-yl)methyl)amino)-4-((3,3,3-trifluoro-2,2-dimethylpropyl)amino)quinoline-3,8-dicarbonitrile] | 33 nM | 2 nM |  |  |  |
| Cc1c([C@H](Nc2cc(Cl)c3ncc(C#N)c(NCC(C)(C)C)c3c2)c2cn(C3(C(F)F)CC3)nn2)cccc1-n1cnnn1 [Example 1062, (S)-8-chloro-6-(((1-(1-(difluoromethyl)cyclopropyl)-1H-1,2,3-triazol-4-yl)(2-methyl-3-(1H-tetrazol-1 yl)phenyl)methyl)amino)-4-(neopentylamino)quinoline-3-carbonitrile] | 70 nM | 3 nM |  |  |  |
| CC(C)(C)CNc1c(C#N)cnc2c(Cl)cc(N[C@@H](c3cccc(C4(C#N)CC4)c3)c3cn(C4(C(F)(F)F)CC4)nn3)cc12 [Example 1091, (S)-8-chloro-6-(((3-(1-cyanocyclopropyl)phenyl)(1-(1-(trifluoromethyl)cyclopropyl)-1H-1,2,3-triazol-4-yl)methyl)amino)-4-(neopentylamino)quinoline-3-carbonitrile] | ≥ 1000 nM | 28 nM |  |  |  |
| CC(C)(C)CNc1c(C#N)cnc2c(Cl)cc(N[C@@H](c3ccc(F)cc3)c3cn(CC(F)F)nn3)cc12 [Example 1002, (S)-8-chloro-6-(((1-(2,2-difluoroethyl)-1H-1,2,3-triazol-4-yl) (4-fluorophenyl)methyl)amino)-4-(neopentylamino) quinoline-3-carbonitrile] | 202 nM | 14 nM |  |  |  |
| Cc1c([C@H](Nc2cc(Cl)c3ncc(C#N)c(NCC(C)(C)C)c3c2)c2cn(C3(C(F)(F)F)CC3)nn2)cccc1-n1ccnc1 [Example 1041, (S)-6-(((3-(1H-imidazol-1-yl)-2-methylphenyl)(1-(1-(trifluoromethyl)cyclopropyl)-1H-1,2,3-triazol-4-yl)methyl)amino)-8-chloro-4-(neopentylamino)quinoline-3-carbonitrile] | 86 nM | 4 nM |  |  |  |

Continued by falling EC50 [1, 5], values first:

| EC50 [1, 3] | IC50 [2, 4] | EC50 [1, 5] | IC50 [2, 6] | IC50 [2, 7] | Structure (SMILES) |
| --- | --- | --- | --- | --- | --- |
|  |  | 3150 nM |  | 301 nM | N#Cc1cnc2c(Cl)cc(NC(c3ccccc3)c3nn[nH]c3CN3CCOCC3)cc2c1Nc1ccc(F)c(Cl)c1 (centres unmarked) [Example 519, 8-chloro-4-((3-chloro-4-fluorophenyl)amino)-6-(((5-(morpholinomethyl)-1H-1,2,3-triazol-4-yl)(phenyl)methyl)amino) quinoline-3-carbonitrile] |
|  |  | 2990 nM |  | 206 nM | CC1CC(Nc2c(C#N)cnc3c(Cl)cc(N[C@@H](c4ccccc4)c4cn(C5CCN(C(C)(C)C)CC5)nn4)cc23)CC(C)O1 (stereo partly drawn) [Example 509, 6-(((S)-(1-(1-(tert-butyl)piperidin-4-yl)-1H-1,2,3-triazol-4-yl)(phenyl)methyl)amino)-8-chloro-4-((2,6-dimethyltetrahydro-2H-pyran-4-yl)amino) quinoline-3-carbonitrile] |
|  |  | 2910 nM | 543 nM |  | [2H][C@](Nc1cc(-c2ccc(NC(C)=O)cc2)c2ncc(C#N)c(NCC(C)(C)C)c2c1)(c1ccc(F)cc1)c1cn(C2CC2)nn1 [Example 169, (S)-N-(4-(3-cyano-6-(((1-cyclopropyl-1H-1,2,3-triazol-4-yl)(4-fluorophenyl)methyl-d)amino)-4-(neopentylamino)quinolin-8-yl)phenyl)acetamide] |
|  |  | 2360 nM |  | 96 nM | N#Cc1cnc2c(Cl)cc(N[C@@H](c3ccccc3)c3cn(CCCN4CCCC4)nn3)cc2c1Nc1c(F)cc(F)cc1F [Example 472, (S)-8-chloro-6-((phenyl(1-(3-(pyrrolidin-1-yl)propyl)-1H-1,2,3-triazol-4-yl)methyl)amino)-4-((2,4,6-trifluorophenyl)amino) quinoline-3-carbonitrile] |
|  |  | 1710 nM |  | 664 nM | N#Cc1cnc2c(Cl)cc(N[C@@H](c3ccc(Cl)cc3)c3c[nH]nn3)cc2c1Nc1cc(Cl)ccc1F [Example 639, (S)-8-chloro-4-((5-chloro-2-fluorophenyl)amino)-6-(((4-chlorophenyl)(1H-1,2,3-triazol-4-yl)methyl)amino)quinoline-3-carbonitrile] |
|  |  | 1240 nM |  | 122 nM | Cc1cccc(Nc2c(C#N)cnc3c(Cl)cc(N[C@@H](c4ccc(Cl)cc4)c4cn(C5CCN(C(C)(C)C)CC5)nn4)cc23)c1 [Example 741, (S)-6-(((1-(1-(tert-butyl)piperidin-4-yl)-1H-1,2,3-triazol-4-yl)(4-chlorophenyl)methyl)amino)-8-chloro-4-(m-tolylamino)quinoline-3-carbonitrile] |
|  |  | 975 nM | 4 nM |  | CC(C)(C)N1CCC(n2cc([C@@H](Nc3cc(Cl)c4ncc(C#N)c(Nc5ccc(F)c(Cl)c5)c4c3)c3cccc(NS(C)(=O)=O)c3)nn2)CC1 [Compound 25] |
|  |  | 503 nM |  | 24 nM | CC(C)(C)N1CCC(n2cc([C@@H](Nc3cc(Cl)c4ncc(C#N)c(Nc5cccc(Cl)c5Cl)c4c3)c3ccccc3)nn2)CC1 [Example 526, (S)-6-(((1-(1-(tert-butyl)piperidin-4-yl)-1H-1,2,3-triazol-4-yl)(phenyl)methyl)amino)-8-chloro-4-((2,3-dichlorophenyl)amino) quinoline-3-carbonitrile] |
|  |  | 454 nM |  | 9 nM | N#Cc1cnc2c(Cl)cc(N[C@@H](c3ccc(F)cc3)c3cn(CCCN4CCCC4)nn3)cc2c1Nc1cnc(F)c(F)c1 [Example 459] |
|  |  | 321 nM |  | 20 nM | Cn1cc(C(Nc2cc(Cl)c3ncc(C#N)c(Nc4ccc(F)c(Cl)c4)c3c2)c2ccc(F)cc2)nn1 (centres unmarked) [Example 882, 8-chloro-4-((3-chloro-4-fluorophenyl)amino)-6-(((4-fluorophenyl)(1-methyl-1H-1,2,3-triazol-4-yl)methyl)amino)quinoline-3-carbonitrile] |
|  |  | 200 nM |  | 2 nM | N#Cc1cnc2c(Cl)cc(N[C@@H](c3ccccc3)c3cn(CCN)nn3)cc2c1Nc1ccc(F)c(Cl)c1 [Example 796, (S)-6-(((1-(2-aminoethyl)-1H-1,2,3-triazol-4-yl)(phenyl)methyl)amino)-8-chloro-4-((3-chloro-4-fluorophenyl)amino)quinoline-3-carbonitrile] |
|  |  | 157 nM | 10 nM |  | [2H][C@](Nc1cc(Cl)c2ncc(C#N)c(NC3CCCC3(C)C)c2c1)(c1ccc(F)cc1)c1cn(C2CC2)nn1 (some centres unmarked) [Example 189] |
|  |  | 98 nM | 5 nM |  | [2H][C@](Nc1cc(C(C)=O)c2ncc(C#N)c(NCC(C)(C)C)c2c1)(c1ccc(F)cc1)c1cn(C2CC2)nn1 [Compound 11] |
|  |  | 71 nM | 1 nM |  | [2H][C@](Nc1cc(C#N)c2ncc(C#N)c(NCC(C)(C)C)c2c1)(c1cccc(C#N)c1)c1cn(C2CC2)nn1 [Example 240, (S)-6-(((3-cyanophenyl)(1-cyclopropyl-1H-1,2,3-triazol-4-yl)methyl-d)amino)-4-(neopentylamino)quinoline-3,8-dicarbonitrile] |
